Measurements reported in patent publication US20070027143A1, “Novel substituted 2,3-benzodiazepine derivatives” (priority 2003, published 2007).

Experiments:
CD1 mice [1] = test: Anticonvulsant activity, bicuculline induced seizures; assay type: in vivo; details: Mus musculus; po.; read-out: Bicuculline ED50
Summary of the method: (§1)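 Male CD1 mice (10 per dose) received test compounds orally at three dose levels, usually 60 min before chemical induction of clonic-tonic seizures and lethality.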

CD1 mice [2] = test: Anti-tremor effect, GYKI 20039 induced tremor; assay type: in vivo; details: Mus musculus; po., Litchfield-Wilcoxon, limits in brackets; read-out: ED50, tremor induced by GYKI 20039 10 mg/kg ip.
CD1 mice [3] = test: Anticonvulsant activity, nicotine induced seizures; assay type: in vivo; details: Mus musculus; po.
Summary of the method: as §1

CD1 mice [4] = test: Muscle relaxant activity, inclined screen test; assay type: in vivo; details: Mus musculus, ip
CD1 mice [5] = test: Anticonvulsant activity, maximal electroshock seizure (MES) test; assay type: in vivo; details: Mus musculus, po.
AMPA receptors = test: Inhibition of AMPA induced spreading depression in isolated chicken retina; assay type: cell-based; details: AMPA (5 μM)
Summary of the method: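 Isolated chicken retina; spreading depression evoked by 5 μM AMPA. Antagonism read as prolongation of the latency to spreading-depression onset.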

BN rats [6] = test: Bronchial hyperresponsiveness of ovalbumin sensitized, antigen challenged BN rats (tracheal rings, acetylcholine); assay type: in vivo; details: 3.0 mg/kg po, 2 hours pre-challenge, mean ± SE
Description: (§2) Bronchial hyperresponsiveness (BHR) and airway eosinophilia (AEP) are characteristic features of bronchial asthma. BHR is typified by an exaggerated response to a wide variety of stimuli that can induce an increased resistance to airflow in the airways. AEP is a result of prolonged eosinophil infiltration, mast cell, and T cell activation in the airways. In actively (e.g., ovalbumin) immunized rats (e.g., Brown Norway [BN] strain), repeated sensitization followed by antigenic challenge results in lung eosinophilia and bronchial hyperresponsiveness to different spasmogens (e.g., acetylcholine). This is the most frequently employed model for studying potential anti-asthmatic effects of new chemical entities.
(§3) BN rats were actively immunized with allergen (ovalbumin). On day one, rats were sensitized with the subcutaneous administration of ovalbumin suspended in Al(OH)3 (2.5 μg ovalbumin +20 mg Al(OH)3 in 0.5 ml saline). Booster injections (same dose and same route) were given at day 14 and 21. Simultaneously at each occasion 0.25 ml of Bordatella pentussis vaccine was injected intraperitoneally. On day 28, animals were challenged by inhalation of the antigen (vaporized 1% OVA solution for 1 hour). Test compounds were administered orally 2 hours pre-challenge.
(§4) 48 hours following challenge, they were sacrificed by an overdose of urethane (4-5 ml of 15% urethane given i.p.), bronchoalveolar lavage fluid (BALF) was obtained, and tracheae dissected from the animals. Eosinophil cell count (cells/ml BALF) was determined manually using a selective stain for eosinophils and counting the cells in a Buerker chamber. BHR was determined using tracheal rings suspended in an organ bath. After an equilibration period of 30 minutes, cumulative concentration response curves to acetylcholine were determined. Maximal response of control (unchallenged, non-treated) tracheal rings is obtained at 10^−3 M acetylcholine. The height of this response is defined as 100%. All other contractions are expressed as a percentage and related to the control response.

CD1 mice [7] = test: Muscle relaxant activity, rotarod test; assay type: in vivo; details: Mus musculus, ip
CD1 mice [8] = test: Anticonvulsant activity, bemegride induced seizures; assay type: in vivo; details: Mus musculus; po.; read-out: Bemegride ED50
Summary of the method: as §1

Lewis rats = test: Autoimmune encephalomyelitis model, histological symptoms; assay type: in vivo; details: day 24 after immunization
Experimental: 5-15 animals were used in each group. Their weights were 160-180 g (Lewis rats, female) and 180-220 g (Lewis rats, male). The activity of the compounds was determined according to the symptom score values, and compared to those of the control group (see Table 6). Histopathological investigations were carried out on the brain stem, the spinal cord, and the sciatic nerve (Gijbels et al., J. Clin. Invest. 94:2177 (1994)) using 5-10 animal/group.
Compounds of the invention were further investigated in the autoimmune encephalomyelitis model in rats as outlined in this description before, with the variance that 10 animals were used in each group, of weights 140-160 g (Lewis rats, female).

CD1 mice [9] = test: Anticonvulsant activity, strychnine induced seizures; assay type: in vivo; details: Mus musculus; po.; read-out: Strychnine ED50
Summary of the method: as §1

AMPA/kainate receptors = test: Inhibition of AMPA induced whole-cell current in acutely isolated cerebellar Purkinje cells (patch clamp); assay type: cell-based; details: 5 μM AMPA, read-out: Inhibition of the ion-currents caused by 5 μM AMPA, IC50
Summary of the method: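 Whole-cell patch-clamp on acutely isolated cerebellar Purkinje cells; current evoked by 5 μM AMPA, with compound activity measured as inhibition of this AMPA-induced current.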

CD1 mice [10] = test: Anticonvulsant activity, pentetrazole induced seizures; assay type: in vivo; details: Mus musculus; po.; read-out: Pentetrazol ED50
Summary of the method: as §1

BN rats [11] = test: Airway eosinophilia of ovalbumin sensitized, antigen challenged BN rats (BALF eosinophil count); assay type: in vivo; details: 3.0 mg/kg po, 2 hours pre-challenge, mean ± SE
Description: as §2, §3, §4

CD1 mice [12] = test: Anticonvulsant activity, 3-mercapto-propionic acid induced seizures; assay type: in vivo; details: Mus musculus; po.; read-out: 3-MPA ED50
Summary of the method: as §1

[13] = 0.5 h, 30′, read-out: MES 30′ ED50
[14] = 1 h, 60 min before induction, read-out: MES (MES 60′) ED50

SMILES: CC(=O)N1N=C(c2ccc(N)cc2)c2cc3c(cc2C[C@H]1C)OCO3 [GYKI 53773, (R)-7-acetyl-5-(4-aminophenyl)-8,9-dihydro-8-methyl-7H-1,3-dioxolo[4,5-h][2,3]benzodiazepine, reference compound]
- ED50 (CD1 mice [1]): 14.6 mg/kg
- ED50 (CD1 mice [2]): 10.6 mg/kg
- ED50 (CD1 mice [3]): 22.7 mg/kg
- ED50 (CD1 mice [4]): 13.4 mg/kg
- ED50 (CD1 mice [5]; [13]): 4.9 mg/kg
- ED50 (CD1 mice [5]; [14]): 8.6 mg/kg
- IC50 (AMPA receptors): 1.2 µM
- MAX: relative contraction compared to the control at a maximal Ach concentration (BN rats [6]): 85 ± 43%
- ED50 (CD1 mice [7]): 2.3 mg/kg
- ED50 (CD1 mice [8]): 23.9 mg/kg
- Histological symptoms (change, %) (Lewis rats; 30 mg/kg ip., female rats): −16%
- Histological symptoms (change, %) (Lewis rats; 30 mg/kg ip., male rats): +34%
- ED50 (CD1 mice [9]): 17.4 mg/kg
- IC50 (AMPA/kainate receptors): 1.57 µM
- ED50 (CD1 mice [10]): 16.8 mg/kg
- BALF eosinophil number (BN rats [11]): 1.29 ± 0.11 ×10^6/ml
- ED50 (CD1 mice [12]): 17.1 mg/kg

SMILES: Cc1nnc(N2N=C(c3ccc(N)c(C)c3)c3cc4c(cc3C[C@H]2C)OCO4)s1 [Example 119, (R)-5-(4-amino-3-methylphenyl)-8-methyl-7-(5-methyl-1,3,4-thiadiazol-2-yl)-8,9-dihydro-7H-1,3-dioxolo-[4,5-h][2,3]benzodiazepine]
- ED50 (CD1 mice [1]): 2.5 mg/kg
- ED50 (CD1 mice [2]): 2.21 mg/kg
- ED50 (CD1 mice [3]): 6.3 mg/kg
- ED50 (CD1 mice [4]): 2.49 mg/kg
- ED50 (CD1 mice [5]; [13]): 2.15 mg/kg
- ED50 (CD1 mice [5]; [14]): 2.87 mg/kg
- IC50 (AMPA receptors): 0.069 µM
- MAX: relative contraction compared to the control at a maximal Ach concentration (BN rats [6]): 82 ± 7%
- pEC50 of acetylcholine (BN rats [6]): 4.35 ± 0.36 −log M
- ED50 (CD1 mice [7]): 0.51 mg/kg
- ED50 (CD1 mice [8]): 5.7 mg/kg
- Histopathological symptoms (change %) (Lewis rats; 0.2 mg/kg i.p., female rats): +2%
- Histopathological symptoms (change %) (Lewis rats; 0.5 mg/kg i.p., female rats): −13%
- Histopathological symptoms (change %) (Lewis rats; 0.5 mg/kg p.o., female rats): −16%
- Histopathological symptoms (change %) (Lewis rats; 1.0 mg/kg i.p., female rats): −3%
- Histopathological symptoms (change %) (Lewis rats; 1.0 mg/kg p.o., female rats): −21%
- Histological (histopathological) symptoms (change, %) (Lewis rats; 1.875 mg/kg ip., female rats): −8%
- Histopathological symptoms (change %) (Lewis rats; 1.875 mg/kg p.o., female rats): −42%
- Histological (histopathological) symptoms (change, %) (Lewis rats; 3.75 mg/kg ip., female rats): +3%
- Histopathological symptoms (change %) (Lewis rats; 3.75 mg/kg p.o., female rats): −32%
- ED50 (CD1 mice [9]): 8.4 mg/kg
- IC50 (AMPA/kainate receptors): 0.026 µM
- ED50 (CD1 mice [10]): 5 mg/kg
- BALF eosinophil number (BN rats [11]): 1.16 ± 0.24 ×10^6/ml
- ED50 (CD1 mice [12]): 3.37 mg/kg

SMILES: Cc1nnc(N2N=C(c3ccc(N)cc3)c3cc4c(cc3C[C@H]2C)OCO4)s1 [Example 86, (R)-5-(4-Aminophenyl)-8-methyl-7-(5-methyl-1,3,4-thiadiazol-2-yl)-8,9-dihydro-7H-1,3-dioxolo-[4,5-h][2,3]benzodiazepine]
- ED50 (CD1 mice [1]): 4.6 mg/kg
- ED50 (CD1 mice [2]): 6.8 mg/kg
- ED50 (CD1 mice [3]): 16.5 mg/kg
- ED50 (CD1 mice [4]): 3.9 mg/kg
- ED50 (CD1 mice [5]; [13]): 4.3 mg/kg
- ED50 (CD1 mice [5]; [14]): 6.1 mg/kg
- IC50 (AMPA receptors): 0.42 µM
- MAX: relative contraction compared to the control at a maximal Ach concentration (BN rats [6]): 81 ± 14%
- pEC50 of acetylcholine (BN rats [6]): 4.95 ± 0.59 −log M
- ED50 (CD1 mice [7]): 0.8 mg/kg
- ED50 (CD1 mice [8]): 11.2 mg/kg
- Histological (histopathological) symptoms (change, %) (Lewis rats; 1.875 mg/kg ip., female rats): −15%
- Histological symptoms (change, %) (Lewis rats; 1.875 mg/kg ip., male rats): −25%
- Histological (histopathological) symptoms (change, %) (Lewis rats; 3.75 mg/kg ip., female rats): −20%
- Histological symptoms (change, %) (Lewis rats; 3.75 mg/kg ip., male rats): +4%
- Histological symptoms (change, %) (Lewis rats; 7.5 mg/kg ip., female rats): −22%
- Histological symptoms (change, %) (Lewis rats; 7.5 mg/kg ip., male rats): +1%
- Histological symptoms (change, %) (Lewis rats; 15 mg/kg ip., female rats): −53%
- Histological symptoms (change, %) (Lewis rats; 15 mg/kg ip., male rats): −66%
- ED50 (CD1 mice [9]): 10.6 mg/kg
- IC50 (AMPA/kainate receptors): 0.06 µM
- ED50 (CD1 mice [10]): 10 mg/kg
- BALF eosinophil number (BN rats [11]): 1.32 ± 0.32 ×10^6/ml
- ED50 (CD1 mice [12]): 4 mg/kg
